Assays:
[1] = biological target: T1, LmjIPCS (Leishmania major, UniProt E9AFX2); assay: HPTLC based LmjIPCS assay; format: biochemical; conditions: microsomes treated with 5 mM compound; NBD-C6-ceramide and PI
T1 construct: made in house
Description: CF was originally selected from a screen for inhibitors of the sphingolipid synthase, (L. majIPCS) and to verify that this new analogue retained this profile we applied the same assays as used before. […] To support inhibition of the IPCS, the HPTLC biochemical assay described by Mina et al.[16] was employed. In this, using a microsomal preparation of the L. majIPCS, a fluorescent substrate NBD-C6-ceramide was combined with PI and the two drugs. Following the reaction, the product, NBD-C6-IPC, and residual starting material were separated via HPTLC and analysed by fluorescence spectroscopy.
°C and 5% CO2. Aliquots of resazurin solution (10 μL) were then added and the cells were incubated at 37 °C and 5% CO2 for 4 h. Cell-viability measurement was carried out using a fluorescence plate reader. […]
days. Infected ear thicknesses were measured once or twice a week with a caliper gauge, and the lesion sizes were expressed as the difference between the thickness of infected and non-infected ear. On day 41 animals were sacrificed and the fluorescence measured (485 - 528 nm) and parasite load quantified using a limiting dilution assay (LDA).
Data on lesion progression were analysed for statistical significance by using the Dunnett test as part of the one-way ANOVA (GraphPad Prism 8 software). […]
Product quantification was carried out using a fluorescence plate reader […]

[2] = biological target: T2, M4 (h) (antagonist radioligand) (Homo sapiens, UniProt P08173); assay: radioligand displacement assay, M4; format: binding
T2 construct: purchased Eurofins (contract assay); host or cells: cell membrane homogenates
T2 sequence (P08173 1-479): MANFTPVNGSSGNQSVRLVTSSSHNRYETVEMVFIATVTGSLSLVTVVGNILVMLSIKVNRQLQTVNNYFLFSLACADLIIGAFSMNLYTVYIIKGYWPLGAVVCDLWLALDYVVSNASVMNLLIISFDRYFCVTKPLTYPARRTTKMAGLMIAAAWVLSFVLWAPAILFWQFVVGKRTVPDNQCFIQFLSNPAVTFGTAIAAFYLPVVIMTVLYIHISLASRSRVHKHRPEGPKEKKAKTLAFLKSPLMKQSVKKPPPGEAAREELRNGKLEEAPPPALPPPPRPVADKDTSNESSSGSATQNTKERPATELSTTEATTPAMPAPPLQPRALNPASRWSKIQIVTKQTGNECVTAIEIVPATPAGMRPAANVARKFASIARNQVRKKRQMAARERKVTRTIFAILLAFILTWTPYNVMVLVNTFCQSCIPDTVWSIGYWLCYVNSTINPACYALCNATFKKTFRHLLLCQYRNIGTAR
Description: 4.2.3.6. Radioligand Binding Assay (Supplemental Figure S3)
These assays were run by Eurofins under contract to LifeArc FR095-0011887. A representative protocol describing the human histamine H2 receptor (antagonist radioligand) assay is shown below.12 Cell membrane homogenates (24 µg protein) are incubated for 120 min at 22°C with 0.075 nM [125I]APT in the absence or presence of the test compound in a buffer containing 50 mM Na2HPO4/KH2PO4 (pH […]
7.4) and 0.05% BSA. […] Following

[3] = tested on: L. major promastigotes (FV1) WT; assay: anti-promastigote assay, L. major (resazurin); format: cell-based; conditions: Leishmania major; promastigote parasites (Table 1); read-out: L.mj EC50
Description: 4.2.3.1. Anti-promastigote assays
L. major promastigotes (FV1) WT, PX and Δ LCB2 in Schneider’s insect medium (100 μL at 1 × 106 mL−1) were incubated in 96-well plates with compounds in triplicate (amphotericin B and cycloheximide were used as positive controls, and untreated parasites with 1% DMSO as a negative control) at 26 °C for 48 h.
Resazurin Solution (10 μL) was then added and the plate incubated at 26 °C for 4 h prior to measurement using a fluorescence plate reader (555 - 585 nm). EC50 values were calculated using sigmoidal regression analysis (GraphPad Prism). […]
well-1 in a 24-well plate with round cover slips and incubated for 24 h at 37 °C and 5% CO2. […]

T1 sequence (E9AFX2 whole entry): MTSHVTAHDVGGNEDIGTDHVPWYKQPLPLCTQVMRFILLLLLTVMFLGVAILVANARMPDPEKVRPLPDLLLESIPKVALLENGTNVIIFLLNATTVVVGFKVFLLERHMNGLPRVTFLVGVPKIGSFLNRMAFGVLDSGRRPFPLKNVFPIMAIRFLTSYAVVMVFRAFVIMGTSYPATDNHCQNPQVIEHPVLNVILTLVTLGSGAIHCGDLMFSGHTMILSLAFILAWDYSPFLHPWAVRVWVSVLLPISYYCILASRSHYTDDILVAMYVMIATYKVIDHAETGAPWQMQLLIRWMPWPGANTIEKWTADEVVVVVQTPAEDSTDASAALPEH

C[C@H]1CCCN1CCCO[C@H](c1ccccc1)c1ccc(Cl)cc1 [38l]
NBD-C6-IPC product formation (HPTLC) [1]: No product was observed
effective binding, radioligand displacement, M4 [2]: > 40%
EC50 [3]: 30 nM
